Experimental data taken from patent US4650801A, “Anti-cancer compositions for delivering 5-fluorouracil” (Taiho Pharmaceutical Company, Ltd., priority 1978, dated 1987).

System: sarcoma 180
Test: Anti-cancer effect on subcutaneously transplanted sarcoma 180 in mice
Format: in vivo, mouse
Experimental: The anti-cancer compositions of this invention are tested in mice by the following methods to determine acute toxicity, anti-cancer effect and therapeutic index
Tissues of sarcoma 180, 2×10^6, are subcutaneously transplanted in the back of male mice of ICR strain (6 mice in each group). A 5-fluorouracil (a) and uracil derivative (b) in the proportions listed in Tables 1-16 are suspended in a 5% solution of gum arabic to prepare a suspension. Twenty-four hours after the transplantation and during the following seven consecutive days the suspension is orally given to the animal once every day. On the 10th day after the transplantation, the tumor is removed from the body and weighed to calculate the average weight (T) of the tumors in the group to which the composition has been given and the corresponding weight (C) in the control group to determine the ratio T/C.

O=c1[nH]cc(F)c(=O)n1C1CCCO1 (stereo not shown) [Compound 6, 3-(2-Tetrahydrofuryl)-5-fluorouracil]
ED50 ((b) = 1(2-Tetrahydrofuryl)uracil, (b)/(a) mol ratio 1): 51 mg/kg
ED50 ((b) = 1(2-Tetrahydrofuryl)uracil, (b)/(a) mol ratio 2): 29 mg/kg
ED50 ((b) = 1(2-Tetrahydrofuryl)uracil, (b)/(a) mol ratio 5): 18 mg/kg
ED50 ((b) = 1Acetyluracil, (b)/(a) mol ratio 1): 32 mg/kg
ED50 ((b) = 1Acetyluracil, (b)/(a) mol ratio 2): 26 mg/kg
ED50 ((b) = 1Acetyluracil, (b)/(a) mol ratio 5): 16 mg/kg
ED50 ((b) = 1Cyclohexylcarbamoyluracil, (b)/(a) mol ratio 0.5): 55 mg/kg
ED50 ((b) = 1Cyclohexylcarbamoyluracil, (b)/(a) mol ratio 2): 46 mg/kg
ED50 ((b) = 1Cyclohexylcarbamoyluracil, (b)/(a) mol ratio 5): 33 mg/kg
ED50 ((b) = 1n-Hexylcarbamoyluracil, (b)/(a) mol ratio 1): 59 mg/kg
ED50 ((b) = 1n-Hexylcarbamoyluracil, (b)/(a) mol ratio 2): 41 mg/kg
ED50 ((b) = 1n-Hexylcarbamoyluracil, (b)/(a) mol ratio 10): 28 mg/kg
ED50 ((b) = 2'-Deoxycytidine, (b)/(a) mol ratio 1): 59 mg/kg
ED50 ((b) = 2'-Deoxycytidine, (b)/(a) mol ratio 2): 47 mg/kg
ED50 ((b) = 2'-Deoxycytidine, (b)/(a) mol ratio 10): 34 mg/kg
ED50 ((b) = 2'-Deoxyuridine, (b)/(a) mol ratio 1): 53 mg/kg
ED50 ((b) = 2'-Deoxyuridine, (b)/(a) mol ratio 2): 42 mg/kg
ED50 ((b) = 2'-Deoxyuridine, (b)/(a) mol ratio 20): 26 mg/kg
ED50 ((b) = 3Benzoyluracil, (b)/(a) mol ratio 1): 42 mg/kg
ED50 ((b) = 3Benzoyluracil, (b)/(a) mol ratio 2): 32 mg/kg
ED50 ((b) = 3Benzoyluracil, (b)/(a) mol ratio 10): 25 mg/kg
ED50 ((b) = 5Bromo-2'-deoxyuridine, (b)/(a) mol ratio 0.5): 49 mg/kg
ED50 ((b) = 5Bromo-2'-deoxyuridine, (b)/(a) mol ratio 2): 30 mg/kg
ED50 ((b) = 5Bromo-2'-deoxyuridine, (b)/(a) mol ratio 10): 22 mg/kg
ED50 ((b) = 5Bromouracil, (b)/(a) mol ratio 0.5): 39 mg/kg
ED50 ((b) = 5Bromouracil, (b)/(a) mol ratio 2): 26 mg/kg
ED50 ((b) = 5Bromouracil, (b)/(a) mol ratio 10): 21 mg/kg
ED50 ((b) = 5Iodouracil, (b)/(a) mol ratio 1): 26 mg/kg
ED50 ((b) = 5Iodouracil, (b)/(a) mol ratio 2): 17 mg/kg
ED50 ((b) = 5Iodouracil, (b)/(a) mol ratio 5): 11 mg/kg
ED50 ((b) = Cytidine, (b)/(a) mol ratio 1): 58 mg/kg
ED50 ((b) = Cytidine, (b)/(a) mol ratio 2): 39 mg/kg
ED50 ((b) = Cytidine, (b)/(a) mol ratio 10): 34 mg/kg
ED50 ((b) = Cytosine, (b)/(a) mol ratio 1): 56 mg/kg
ED50 ((b) = Cytosine, (b)/(a) mol ratio 2): 41 mg/kg
ED50 ((b) = Cytosine, (b)/(a) mol ratio 10): 24 mg/kg
ED50 ((b) = Orotic acid, (b)/(a) mol ratio 1): 69 mg/kg
ED50 ((b) = Orotic acid, (b)/(a) mol ratio 2): 61 mg/kg
ED50 ((b) = Orotic acid, (b)/(a) mol ratio 20): 46 mg/kg
ED50 ((b) = Thymidine, (b)/(a) mol ratio 0.5): 67 mg/kg
ED50 ((b) = Thymidine, (b)/(a) mol ratio 2): 63 mg/kg
ED50 ((b) = Thymidine, (b)/(a) mol ratio 10): 60 mg/kg
ED50 ((b) = Thymine, (b)/(a) mol ratio 0.5): 48 mg/kg
ED50 ((b) = Thymine, (b)/(a) mol ratio 2): 27 mg/kg
ED50 ((b) = Thymine, (b)/(a) mol ratio 10): 14 mg/kg
ED50 ((b) = Uridine, (b)/(a) mol ratio 1): 43 mg/kg
ED50 ((b) = Uridine, (b)/(a) mol ratio 2): 31 mg/kg
ED50 ((b) = Uridine, (b)/(a) mol ratio 20): 29 mg/kg
ED50 ((b)/(a) mol ratio 0 (alone), oral, 50% cancer inhibition (T/C)): 73 mg/kg
